We go through 3 molecules from ChEMBL document CHEMBL1201862, “PubChem BioAssay data set” (2004).

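Step 1: Grow cells in 96-well plates. Step 2: Expose to compound for 48 hours at 5 concentrations. Step 3: Interpolate endpoints linearly; if unreached, use highest concentration. GI50 marks 50% less growth.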 The source made the active and inactive calls. Rule as the data show it: active = GI50 up to about 1.1 µM and inactive = higher.

Among the test systems are A498; BT-549; CAKI-1; HCT-116; KM12; M14; M19-MEL; MCF7; MDA-MB-435; MDA-N; NCI-H23; NCI-H522; OVCAR-5; OVCAR-8; RPMI-8226; SF-539; SK-OV-3; SN12C; SNB-19; UACC-62.
Holding throughout (assay): growth of human tumour cells (NCI), 48 h

With `O=C1c2ccccc2C(=O)c2c1oc1cc(O)c(Cl)cc21`, the GI50 in the assay with A498 was 19.7 µM (inactive); in the assay with BT-549 it was 4.97 µM (inactive); with CAKI-1, 16.7 µM (inactive); in the assay with HCT-116, 5.27 µM (inactive); with KM12 it was 6.35 µM (inactive); with M14, 3.1 µM (inactive). Moreover, the GI50 in the assay with M19-MEL was 0.177 µM (active); in the assay on MCF7, 8.11 µM (inactive); in the assay on MDA-MB-435 it was 1.81 µM (inactive); in the assay on MDA-N, 1.75 µM (inactive); with NCI-H23, 0.519 µM (active); in the assay on NCI-H522, 9.42 µM (inactive). Besides, the GI50 in the assay with OVCAR-5 was 11.2 µM (inactive); in the assay on OVCAR-8, 7.38 µM (inactive); in the assay on RPMI-8226 it was 4.54 µM (inactive); with SF-539, 5.41 µM (inactive); with SK-OV-3, 17.2 µM (inactive); in the assay with SN12C it was 7.98 µM (inactive). Further, the GI50 in the assay with SNB-19 is 8.81 µM (inactive); in the assay on UACC-62, 1.93 µM (inactive).
Regarding `O=C1/C(=C/c2ccccc2)CN(C(=O)OCc2ccccc2)C/C1=C\c1ccccc1`, the GI50 in the assay on A498 was 27.4 µM (inactive); with BT-549, 13.2 µM (inactive); with CAKI-1, 18.1 µM (inactive); in the assay on HCT-116, 0.345 µM (active); with KM12 it was 5.47 µM (inactive); in the assay with M14 it was 8.07 µM (inactive). Also, the GI50 in the assay with M19-MEL was 5.87 µM (inactive); in the assay on MCF7, 6.43 µM (inactive); with MDA-N, 3.06 µM (inactive); with NCI-H23, 15.6 µM (inactive); in the assay with NCI-H522 it was 6.76 µM (inactive); in the assay on OVCAR-5, 17.4 µM (inactive). The GI50 in the assay with OVCAR-8 was 13.1 µM (inactive); in the assay with SF-539, 18.3 µM (inactive); in the assay with SK-OV-3, 24.4 µM (inactive); with SN12C, 13.8 µM (inactive); in the assay with SNB-19, 26.6 µM (inactive); with UACC-62 it was 12.2 µM (inactive).
Turning to `CN(C)CCCNc1c2ccccc2nc2cccc([N+](=O)[O-])c12`, the GI50 in the assay with A498 is < 0.001 µM (active); with BT-549 it was 0.00252 µM (active); in the assay with CAKI-1, 0.0196 µM (active); with HCT-116, 0.00152 µM (active); with KM12 it was 0.00117 µM (active); with M14 it was < 0.001 µM (active). Moreover, the GI50 is 0.01 µM (active) in the assay on M19-MEL; < 0.001 µM (active) in the assay on MCF7; < 0.001 µM (active) in the assay on MDA-MB-435; 0.00102 µM (active) in the assay on MDA-N; < 0.001 µM (active) in the assay on NCI-H23; < 0.001 µM (active) in the assay on NCI-H522. The GI50 with OVCAR-5 is 0.00217 µM (active); with OVCAR-8, 0.0195 µM (active); in the assay with RPMI-8226, < 0.001 µM (active); with SF-539, 0.00197 µM (active); in the assay on SK-OV-3, 0.00367 µM (active); in the assay on SN12C, 0.00102 µM (active). Moreover, in the assay on SNB-19, the GI50 is 0.00173 µM (active).
